According to ChEMBL document CHEMBL3046138, “5-Aryl-1,3,4-oxadiazole-2-thiols as a New Series of trans-Cinnamate 4-Hydroxylase Inhibitors” (J Pestic Sci, 2004):

Tests used:
[1] = molecular target: T1, Trans-cinnamate 4-monooxygenase (Populus kitakamiensis, UniProt Q43054); assay: Inhibition of Populus sieboldii x Populus grandidentata trans-cinnamate 4-hydroxylase expressed in Saccharomyces cerevisiae BJ2168 assessed as inhibition of hydroxylation of cinnamic acid after 60 min
T1 sequence (Q43054 whole entry): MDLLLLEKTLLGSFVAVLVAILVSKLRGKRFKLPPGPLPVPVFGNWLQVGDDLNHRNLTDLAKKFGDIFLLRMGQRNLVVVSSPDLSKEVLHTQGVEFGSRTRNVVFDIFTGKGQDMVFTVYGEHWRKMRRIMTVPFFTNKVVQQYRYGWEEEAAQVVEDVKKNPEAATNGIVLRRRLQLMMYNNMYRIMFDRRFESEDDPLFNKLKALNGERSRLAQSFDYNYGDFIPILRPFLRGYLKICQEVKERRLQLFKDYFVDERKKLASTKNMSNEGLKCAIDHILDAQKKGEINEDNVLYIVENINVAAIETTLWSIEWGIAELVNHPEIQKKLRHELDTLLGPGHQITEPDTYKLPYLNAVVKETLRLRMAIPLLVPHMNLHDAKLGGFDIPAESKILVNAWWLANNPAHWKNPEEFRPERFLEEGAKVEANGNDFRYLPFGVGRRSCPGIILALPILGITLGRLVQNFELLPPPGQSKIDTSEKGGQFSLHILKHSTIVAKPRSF

[2] = molecular target: T2, Trans-cinnamate 4-monooxygenase (Populus kitakamiensis) (UniProt Q43054); assay: Inhibition of Populus sieboldii x Populus grandidentata CYP73A1 at 100 uM
T2 sequence (whole entry): T1 sequence (Q43054 whole entry)

[3] = molecular target: T3, Trans-cinnamate 4-monooxygenase (Helianthus tuberosus, UniProt Q04468); assay: Inhibition of Helianthus tuberosus CYP73A1
T3 sequence (Q04468 whole entry): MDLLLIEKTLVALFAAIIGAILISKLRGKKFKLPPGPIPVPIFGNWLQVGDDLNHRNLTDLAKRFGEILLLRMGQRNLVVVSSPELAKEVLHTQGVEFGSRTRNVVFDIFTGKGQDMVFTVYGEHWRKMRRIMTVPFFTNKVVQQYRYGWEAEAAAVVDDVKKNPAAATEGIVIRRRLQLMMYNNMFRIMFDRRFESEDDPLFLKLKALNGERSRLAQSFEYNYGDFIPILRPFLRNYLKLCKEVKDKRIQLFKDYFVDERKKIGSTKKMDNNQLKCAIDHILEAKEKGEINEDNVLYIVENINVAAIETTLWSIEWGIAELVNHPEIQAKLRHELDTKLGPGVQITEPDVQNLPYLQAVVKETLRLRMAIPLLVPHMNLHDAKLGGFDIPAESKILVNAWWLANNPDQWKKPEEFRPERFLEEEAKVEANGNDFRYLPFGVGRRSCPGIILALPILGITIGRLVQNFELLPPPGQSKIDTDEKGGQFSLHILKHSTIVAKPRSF

IC50 [1] | IC50 [3] | SMILES | inhibition [2]
500 nM |  | Cc1ccccc1-c1nnc(S)o1 | 
580 nM |  | Sc1nnc(-c2ccccn2)o1 | 
210 nM |  | Sc1nnc(-c2cccc(Cl)c2)o1 | 
6100 nM |  | COc1cccc(-c2nnc(S)o2)c1 | 
15000 nM |  | Sc1nnc(-c2ccncc2)o1 | 
> 100000 nM |  | S=c1[nH]nc(-c2cccc3ccccc23)o1 | 
> 100000 nM |  | Sc1nnc(-c2ccc3ccccc3c2)o1 | 
1100 nM |  | Cc1cccc(-c2nnc(S)o2)c1 | 
680 nM |  | Sc1nnc(-c2ccccc2Cl)o1 | 
> 100000 nM |  | Sc1nnc(/C=C/c2ccccc2)o1 | 
190 nM |  | Fc1ccccc1-c1nnc(S)o1 | 
800 nM |  | S=c1[nH]nc(-c2ccccc2)o1 | 
880 nM | 890 nM | O=C(O)c1c(O)ccc2ccccc12 | 
6700 nM |  | O=c1[nH]nc(-c2ccccc2)o1 | 
420 nM |  | Sc1nnc(-c2cccc(Br)c2)o1 | 
> 100000 nM |  | c1ccc(-c2nnco2)cc1 | 
130 nM |  | Fc1cccc(-c2nnc(S)o2)c1 | 
> 100000 nM |  | FC(F)(F)c1cccc(-c2nnc(S)o2)c1 | 
> 100000 nM |  | Sc1nnc(-c2cc(Cl)cc(Cl)c2)o1 | 
> 100000 nM |  | S=c1[nH]nc(C2CCCCC2)o1 | 
23000 nM |  | S=c1[nH]nc(-c2ccc(Cl)cc2)o1 | 
3300 nM |  | Fc1ccc(-c2nnc(S)o2)cc1 | 
5900 nM |  | Sc1nnc(-c2ccco2)o1 | 
650 nM |  | Sc1nnc(-c2cccnc2)o1 | 
980 nM |  | Sc1nnc(-c2ccccc2Br)o1 | 
2000 nM |  | Sc1nnc(-c2cc(Cl)ccc2Cl)o1 | 
50000 nM |  | Cc1ccc(-c2nnc(S)o2)cc1 | 
6200 nM |  | Sc1nnc(-c2cccs2)o1 | 
> 100000 nM |  | CSc1nnc(-c2ccccc2)o1 | 

SMILES | IC50 [1] | IC50 [3] | inhibition [2]
O=C(O)c1ccc2c(c1)OCO2 [PIPERONYLIC ACID] | > 100000 nM |  | 58%
